Source: patent US6613920B1, “Vitamin D derivatives with carbo- or heterocyclic substituents at C-25, process for their production, intermediate products and use for the production of pharmaceutical agents” (Schering Aktiengesellschaft, priority 1996, dated 2003)

What was measured:
[1] = molecular target: T1, calcitriol receptor (specific receptor protein from the intestines of juvenile pigs) (Sus scrofa, UniProt A3RGC1); test: calcitriol-receptor test (competition with 3H-calcitriol); format: binding, pig; conditions: KF = concentration of test substance / concentration of calcitriol at 50% competition
T1 construct: a specific receptor protein from the intestines of juvenile pigs; from tissue; host or cells: intestines of juvenile pigs
T1 sequence (A3RGC1 1-427): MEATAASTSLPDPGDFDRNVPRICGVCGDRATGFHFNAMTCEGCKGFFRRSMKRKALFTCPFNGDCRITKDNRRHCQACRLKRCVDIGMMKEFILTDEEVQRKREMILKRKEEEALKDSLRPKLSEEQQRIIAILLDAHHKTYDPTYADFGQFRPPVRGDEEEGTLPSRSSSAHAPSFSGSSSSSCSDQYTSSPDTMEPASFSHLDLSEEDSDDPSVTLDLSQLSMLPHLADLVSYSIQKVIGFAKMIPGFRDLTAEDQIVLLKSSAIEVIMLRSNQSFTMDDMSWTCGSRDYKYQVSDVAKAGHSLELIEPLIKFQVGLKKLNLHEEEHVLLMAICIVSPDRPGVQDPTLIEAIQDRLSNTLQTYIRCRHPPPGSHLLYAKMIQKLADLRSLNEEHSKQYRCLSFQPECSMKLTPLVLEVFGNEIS

HL 60 cells [2] = test: differentiation induction of HL 60 cells to macrophages (NBT reduction); format: cell-based, human; conditions: DR = test substance dose / calcitriol dose for comparable semi-maximum actions; 96 hours incubation
Method: The differentiation-stimulating action of calcitriol analogues is also detected quantitatively.
It is known in the literature [Mangelsdorf, D. J. et al., J. Cell.
HL 60 cells are cultivated in tissue culture medium (RPMI 10% fetal calf serum) at 37° C. in an atmosphere of 5% CO2 in air.
For substance testing, the cells are centrifuged off, and 2.0×10^5 cells/ml in phenol red-free tissue culture medium is taken up. The test substances are dissolved in ethanol and diluted with tissue culture medium without phenol red to the desired concentration. The dilution stages are mixed with the cell suspension at a ratio of 1:10, and 100 μl each of this cell suspension that is mixed with substance is pipetted into an indentation of a 96-hole plate. For control, a cell suspension is mixed analogously with the solvent.
After incubation for 96 hours at 37° C. in 5% CO2 in air, 100 μl of an NBT-TPA solution (nitro blue tetrazolium (NBT), final concentration in the batch of 1 mg/ml, tetradecanoyl phorbolmyristate-13-acetate (TPA), final concentration in the batch of 2×10^−7 mol/l) is pipetted into each indentation of the 96-hole plate in the cell suspension.
By incubation for 2 hours at 37° C. and 5% CO2 in air, NBT is reduced to insoluble formazan because of the intracellular oxygen radical release, stimulated by TPA, in the cells that are differentiated to macrophages.
To complete the reaction, the indentations of the 96-hole plate are suctioned off, and the cells are affixed to the bottom of the plate by adding methanol and dried after affixing. To dissolve the intracellular formazan crystals that are formed, 100 μl of potassium hydroxide (2 mol/l) and 100 μl of dimethyl sulfoxide are pipetted into each indentation and ultrasonically treated for 1 minute. The concentration of formazan is measured by spectrophotometry at 650 nm.
As a yardstick for the differentiation induction of HL 60 cells to macrophages, the concentration of formed formazan applies.

[3] = acute hypercalcemic action in rats (serum calcium); format: in vivo; conditions: one-time subcutaneous administration, DR = test substance dose / calcitriol dose for comparable actions
Method: To determine the acute hypercalcemic action of various calcitriol derivatives, the test that is described below is carried out:
During the testing time, the rats are kept in special cages to determine the excretion of water and mineral substances. Urine is collected in 2 fractions (0-16 hours and 16-22 hours). An oral dose of calcium (0.1 mmol of calcium in 6.5% alpha-hydroxypropylcellulose, 5 ml/animal) replaces at 1600 hours the calcium intake that is lacking by food deprivation. At the end of the test, the animals are killed by decapitation and exsanguinated to determine the serum-calcium values. For the primary screen test in vivo, an individual standard dose (200 μg/kg) is tested. For selected substances, the result is supported by establishing a dose-effect relation.
A hypercalcemic action is shown in serum-calcium level values that are higher than in the control.
The significance of differences between substance groups and controls and between test substance and reference substance are supported with suitable statistical processes.

HL 60 cells [4] = test: antagonism of the action of calcitriol in HL 60 cells; format: cell-based, human
Text: In the series of 25-oxazole derivatives, the compounds with increasing chain length on the heterocycle in the case of constantly good receptor affinity show considerably weaker differentiation-stimulating agonistic activity in HL 60 cells (Tab. 1). […] This property is continued with increasing chain length in radical Z of general formula I.

| Competition Factor KF for Receptor Bonding [1] | dose ratio DR for hypercalcemia [3] | Compound | Dose Ratio for Differentiation Induction in HL 60 Cells (HL 60 cells [2]) | antagonism of the action of calcitriol in HL 60 cells (HL 60 cells [4]) |
| --- | --- | --- | --- | --- |
| 2 | 300 | C=C1/C(=C\C=C2/CCC[C@]3(C)[C@@H]([C@H](C)/C=C/[C@@H](O)C4(c5ncc(CCC)o5)CC4)CC[C@@H]23)C[C@@H](O)C[C@@H]1O [Compound 14, (5Z,7E,22E)-(1S,3R,24R)-25-(5-Propyloxazol-2-yl)-26,27-cyclo-9,10-secocholesta-5,7,10(19),22-tetraene-1,3,24-triol] | 1.9 |  |
| 2 |  | C=C1C(=CC=C2CCCC3(C)C2CCC3C(C)C=CC(O)C2(c3ncc(C)o3)CC2)CC(O)CC1O [Compound 15, (5Z,7E,22E)-(1S,3R,24R)-25-(5-methyloxazol-2-yl)-26,27-cyclo-9,10-secocholesta-5,7,10(19),22-tetraene-1,3,24-triol] | 3.4 |  |
| 3 |  | C=C1/C(=C\C=C2/CCC[C@]3(C)[C@@H]([C@H](C)/C=C/[C@@H](O)C4(c5ncc(CC)o5)CC4)CC[C@@H]23)C[C@@H](O)C[C@@H]1O [Compound 16, (5Z,7E,22E)-(1S,3R,24R)-25-(5-ethyloxazol-2-yl)-26,27-cyclo-9,10-secocholesta-5,7,10(19),22-tetraene-1,3,24-triol] | 1.3 | antagonize the action of calcitriol |
| 4 |  | C=C1C(=CC=C2CCCC3(C)C2CCC3C(C)C=CC(O)C2(c3ncc(CCCCC)o3)CC2)CC(O)CC1O [Compound 17, (5Z,7E,22E)-(1S,3R,24R)-25-(5-pentyloxazol-2-yl)-26,27-cyclo-9,10-secocholesta-5,7,10(19),22-tetraene-1,3,24-triol] | >100 | antagonize the action of calcitriol |
